# Results reported in patent US11173156B2, “Solid forms of a kynurenine-3-monooxygenase inhibitor” (CHDI Foundation, Inc., priority 2019, dated 2021).
# Entries after “also recorded” stand apart in the source; their conditions may differ.
# Tests used:
# Assay type in all cases: physicochemical
# [1] = Water activity interconversion slurries; conditions: for water activity at which the form is stable / favored: competitive water activity slurries
# Source text: The resulting solid phase was characterized by XRPD (Table 16). The experiments establish the physically stable form at various aw.
# Water activity is related to relative humidity in that RH %=aw×100. Therefore, it is possible to directly relate the stability of an anhydrous/hydrate system in slurry experiments to solid state stability. Slurry technique at controlled water activities provides an accurate method of rapidly predicting the physically stable form in anhydrous/hydrate systems. This method is particularly valuable when relatively slow kinetics of conversion in the solid state prevents reaching true equilibrium in a reasonable timeframe, since solvent-mediated transformation accelerates the conversion process.
# [2] = Competitive slurry experiments
# Protocol: Competitive slurry experiments were also conducted to evaluate form stability of the solid forms of the sodium salt of Compound I. Slurries were prepared by combining Compound I sodium Pattern A, Form B, Pattern C and Pattern D with a solvent, allowing the slurry to equilibrate with stirring at room temperature. The slurries were analyzed at three day and ten day time points, filtered, and analyzed by XRPD (Table 14).
# [3] = Stability at elevated temperatures (XRPD, HPLC)
# [4] = Solubility of Compound I sodium salt forms in solvents and binary solvent systems
# Protocol: (§1) A weighed sample was treated with aliquots of the test solvent at room temperature. The mixture was sonicated between additions to facilitate dissolution. Complete dissolution of the test material was determined by visual inspection. Solubility was estimated based on the total solvent used to provide complete dissolution. Some samples were then heated and observed visually for complete dissolution. The actual solubility may be greater than the value calculated because of the use of solvent aliquots that were too large or due to a slow rate of dissolution. […] If complete dissolution was achieved as a result of only one aliquot addition, the solubility is expressed as “greater than.”
# [5] = Stability at elevated temperatures (XRPD, HPLC); conditions: for HPLC: after storage at 60 ° C. (time point not given)
# Protocol: The stability of Compound I sodium Patterns A, C, and D and Form B, at about 60° C. was evaluated. These forms were weighed into vials covered with a Kimwipe tissue and stored in an oven at 60° C. and ambient pressure. After three days and ten days of exposure, the solids were analyzed by XRPD to check for form conversion. […].
# [6] = Approximate aqueous solubility of salts/co-crystals (visual, solvent addition method); conditions: water
# Protocol: as §1
# [7] = Slurry experiments (form stability); conditions: for relative stability of the form (in words): at the conditions evaluated
# Protocol: Solutions were prepared by adding enough solids to a given solvent so that excess solids were present. The mixture was then agitated in a sealed vial at either ambient or an elevated temperature. After a given amount of time, the solids were isolated for analysis.
# The formation and stability of solid forms of the sodium salt of Compound I was further evaluated via slurry experiments. The slurries were formed by combining Compound I sodium Pattern A and a solvent, and allowing the slurry to equilibrate at room temperature. If a free flowing slurry was not achieved, an additional amount of the respective solvent was added before the room temperature equilibration step. All slurries were isolated via centrifuge filtration after five days and twelve days of equilibration. The solids were analyzed by XRPD to check for pattern conversion (Table 13).
# [8] = Deliquescence of salts/co-crystals during exposure to 75% RH; conditions: ambient temperature, 3 day exposure
# Protocol: The salts identified from the salt/co-crystal screen of Compound I (see section 4 above) were assessed visually for deliquescence during exposure to 75% RH at ambient temperature (Table 5). […] The materials from these experiments were recovered and re-analyzed by XRPD to determine if changes in solid form occurred.
# [9] = Dynamic vapor sorption/desorption (DVS)
# Protocol: Moisture sorption/desorption data were collected on a VTI SGA-100 Vapor Sorption Analyzer. NaCl and PVP were used as calibration standards. Samples were not dried prior to analysis. Sorption and desorption data were collected over a range from 5% to 95% RH at 10% RH increments under a nitrogen purge. The equilibrium criterion used for analysis was less than 0.0100% weight change in 5 minutes with a maximum equilibration time of 3 hours. Data were not corrected for the initial moisture content of the samples.
# [10] = XRPD analysis of remaining solids from aqueous solubility assessments; conditions: solids recovered from mother liquor of aqueous solubility assessment
# Source text: Compound I ethylenediamine A+B disproportionated, as peaks similar to those observed for Compound I free acid Material C were observed.
# [11] = Approximate aqueous solubility of salts/co-crystals (visual, solvent addition method); conditions: water, thermodynamic from solid, free acid solids retained from filtered aqueous phase, portion rinsed with water, read-out: solubility observed
# [12] = Physical stability on drying, ambient exposure or heating
smiles,measurement,setting,value
"O=C(O)c1cc(-c2ccc(OC3CC3)c(Cl)c2)ncn1 [Compound I sodium Form E, 6-(3-chloro-4-cyclopropoxyphenyl)pyrimidine-4-carboxylic acid]",water activity at which the form is stable / favored,[1],≥ 0.91 aw
same,form conversion in competitive slurry,[2]; acetone and water,converted to Compound I sodium Form B
same,Results (XRPD form),"[3]; 65° C., after 20 min and after 50 min",Form B
same,Results (XRPD form),"[3]; 78° C., 18 days",Form B
same,Results (XRPD form),"[3]; 205° C., briefly",Form B + peaks
same,Results (XRPD form),"[3]; under N2: heat to 175° C. then cooled to 150° C., held for 10 minutes",Form B + peaks
"O=C(O)c1cc(-c2ccc(OC3CC3)c(Cl)c2)ncn1 [Compound I sodium Form B, 6-(3-chloro-4-cyclopropoxyphenyl)pyrimidine-4-carboxylic acid]",Results (XRPD form),"[1]; 0.33 aw, 16:84 H2O/DMF, 6 days",Form B
same,Results (XRPD form),"[1]; 0.39 aw, 15:85 H2O/MeOH, 6 days",Form B
same,Results (XRPD form),"[1]; 0.50 aw, 30:70 H2O/DMF, 6 days",Form B
same,Results (XRPD form),"[1]; 0.58 aw, 6:94 H2O/Acetone, 6 days",Form B
same,Results (XRPD form),"[1]; 0.70 aw, 50:50 H2O/DMF, 6 days",Form B
same,Results (XRPD form),"[1]; 0.86 aw, 70:30 H2O/MeOH, 6 days",Form B
same,Results (XRPD form),"[1]; 0.91 aw, 50:50 H2O/Acetone, 1 day",Form E
same,Results (XRPD form),"[1]; 0.98 aw, 90:10 H2O/Acetone, 6 days",Form E
same,water activity at which the form is stable / favored,[1],≤ 0.86 aw
same,solubility,"[4]; Methanol, ambient",6 mg/mL loading
same,solubility,"[4]; Water, ambient",2 mg/mL loading
same,solubility,"[4]; organic solvent or mixture, thermodynamic from solid, Acetone, 55° C., read-out: Solubility",< 2000 µg/mL
same,solubility,"[4]; organic solvent or mixture, thermodynamic from solid, Acetone, ambient, read-out: Solubility",< 2000 µg/mL
same,solubility,"[4]; organic solvent or mixture, thermodynamic from solid, Acetone/water, 94:6 v/v, 55° C., read-out: Solubility",< 2000 µg/mL
same,solubility,"[4]; organic solvent or mixture, thermodynamic from solid, Acetone/water, 94:6 v/v, ambient, read-out: Solubility",< 2000 µg/mL
same,solubility,"[4]; organic solvent or mixture, thermodynamic from solid, Acetonitrile, 55° C., read-out: Solubility",< 2000 µg/mL
same,solubility,"[4]; organic solvent or mixture, thermodynamic from solid, Acetonitrile, ambient, read-out: Solubility",< 2000 µg/mL
same,solubility,"[4]; organic solvent or mixture, thermodynamic from solid, Acetonitrile/water, 83:17 v/v, ambient, read-out: Solubility",2000 µg/mL
same,solubility,"[4]; organic solvent or mixture, thermodynamic from solid, Ethanol, 55° C., read-out: Solubility",< 2000 µg/mL
same,solubility,"[4]; organic solvent or mixture, thermodynamic from solid, Ethanol, ambient, read-out: Solubility",< 2000 µg/mL
same,solubility,"[4]; organic solvent or mixture, thermodynamic from solid, Ethanol/water, 88:12 v/v, 55° C., read-out: Solubility",~2000 µg/mL
same,solubility,"[4]; organic solvent or mixture, thermodynamic from solid, Ethanol/water, 88:12 v/v, ambient, read-out: Solubility",~2000 µg/mL
same,solubility,"[4]; organic solvent or mixture, thermodynamic from solid, Isopropanol, 55° C., read-out: Solubility",< 2000 µg/mL
same,solubility,"[4]; organic solvent or mixture, thermodynamic from solid, Isopropanol, ambient, read-out: Solubility",< 2000 µg/mL
same,solubility,"[4]; organic solvent or mixture, thermodynamic from solid, Isopropanol/water, 91:9 v/v, 55° C., read-out: Solubility",< 2000 µg/mL
same,solubility,"[4]; organic solvent or mixture, thermodynamic from solid, Isopropanol/water, 91:9 v/v, ambient, read-out: Solubility",< 2000 µg/mL
same,solubility,"[4]; thermodynamic from solid, Water, ambient, read-out: Solubility",≥ 6000 µg/mL
same,chemical and physical form changes after storing at elevated temperatures,[5]; about 60° C. and about 78° C.,No chemical and physical form changes were observed
same,HPLC,[5],>99.9 % AUC
same,aqueous solubility (in words),[6],desirable aqueous solubility; also recorded: good aqueous solubility
same,solubility,"[6]; estimated visually, solvent addition method",4000 µg/mL
same,stability in slurry (in words),[7]; IPA and acetone,stable for about at least seven days
same,relative stability of the form (in words),[7],predominant and most thermodynamically stable form; also recorded: most thermodynamically stable anhydrate form
same,Result (XRPD after exposure),[8]; listed as Sodium B,Sodium B
same,Observation (deliquescence),[8]; visual,no deliquescence
same,hygroscopicity by DVS analysis (in words),[9],hygroscopic
same,DVS weight loss upon equilibration at about 5% RH,[9]; about 5% RH,about 0.03%
same,material recovered from the DVS analysis compared with starting material by XRPD,[9]; after DVS,substantially the same as the starting material
same,DVS weight gain,[9]; from about 5 to about 95% RH,~5.39%
same,DVS weight loss,[9]; from about 95% to about 5% RH,~5.14%
same,gain observed by DVS analysis,[9]; sorption cycle,~5 wt %
same,Result (XRPD of remaining solids),[10],remained unchanged by XRPD
same,Result (XRPD of remaining solids),[10]; listed as Sodium B,Sodium B
"O=C(O)c1cc(-c2ccc(OC3CC3)c(Cl)c2)ncn1 [Compound I sodium Pattern D, 6-(3-chloro-4-cyclopropoxyphenyl)pyrimidine-4-carboxylic acid]",chemical and physical form changes after storing at elevated temperature,[5]; about 60° C.,No chemical and physical form changes were observed
same,HPLC,[5],>99.9 % AUC
same,form conversion in competitive slurry,[2]; water,Compound I sodium Form B
same,form conversion in slurry / trituration,"[7]; acetone and/or isopropanol (trituration, single form or competitive slurry)",converted to Compound I sodium Form B
same,relative stability of the form (in words),[7],not stable
"O=C(O)c1cc(-c2ccc(OC3CC3)c(Cl)c2)ncn1 [Compound I, 6-(3-chloro-4-cyclopropoxyphenyl)pyrimidine-4-carboxylic acid]",solubility,[11],< 4000 µg/mL
"O=C(O)c1cc(-c2ccc(OC3CC3)c(Cl)c2)ncn1 [Compound I sodium Pattern F, 6-(3-chloro-4-cyclopropoxyphenyl)pyrimidine-4-carboxylic acid]",effect of exposure to ambient,[12]; ambient for about 1 day,become disordered
"O=C(O)c1cc(-c2ccc(OC3CC3)c(Cl)c2)ncn1 [Compound I sodium amorphous, 6-(3-chloro-4-cyclopropoxyphenyl)pyrimidine-4-carboxylic acid]",form conversion on heating,[12]; heated to about 150° C.,converts to Compound I sodium Form B
